Here are results for one compound from patent US11938189B2, “Compositions and methods for stabilizing protein-containing formulations” (Genentech, Inc., priority 2010, dated 2024).

The structures appear in SMILES notation.

For data set [1], the system named is anti-MUC16 monoclonal antibody. The data set can be described thus: Shaking at 300 rpm, percent monomer of antibody. Format: physicochemical. The following applies: shaking 300 rpm, 72 hours, 37° C. Here is the method:
(§1) In this set of studies, a buffered solution (20 mM sodium phosphate buffer, pH 7.4) of monoclonal antibody was subjected to shaking on an orbital shaker at 150 rpm, at a controlled temperature of 37° C. These studies were carried out using a 3 ml solution fill of the antibody solution in a 6 cc glass vial. Samples were withdrawn at regular intervals and analyzed for percent monomer using size-exclusion chromatography. Various surfactants of the class of alkylglycosides were evaluated for their effectiveness to prevent protein aggregation during shaking. The surfactants were used at concentrations below their respective critical micelle concentration (CMC) or above their respective CMC.
In FIG. 5, the effect of varying the concentration of n-octyl-β-D-glucopyranoside on the percent monomer of the anti-MUC16 monoclonal antibody in solution, following shaking at 300 rpm at 37° C. for 72 hours was investigated.
(§2) In FIGS. 10-13, the effect of 0.23 mM (0.02% w/v) polysorbate 20 or 3.6 mM (0.1% w/v) n-octyl-β-D-glucopyranoside on the percent monomer of aqueous formulations of an anti-MUC16 monoclonal antibody (FIG. 10), an anti-IgE monoclonal antibody (FIG. 11), an anti-CD11a monoclonal antibody (FIG. 12), and an anti-CD22 monoclonal antibody (FIG. 13), during shaking at 300 rpm for 72 hours at 37° C. was investigated.

Data set [2] deals with anti-MUC16 monoclonal antibody. The data set can be described thus: Shaking-induced aggregation (150 rpm), percent monomer by size-exclusion chromatography. It counts as physicochemical. The following applies: surfactant at one half of its CMC; shaking 150 rpm, 37° C., 64 hours; FIG. 1. The method, then: as §1
The surfactants were employed at one half the concentration of their respective CMC values, i.e., 1.1 mM (0.035% w/v) n-decyl-β-D-glucopyranoside, 9 mM (0.24%) n-octyl-β-D-glucopyranoside and 0.04 mM (0.0035%) polysorbate 20.
On the technique in general: In gel filtration, larger molecules generally elute earlier.

Data set [3] concerns anti-MUC16 monoclonal antibody. The data set can be described thus: Shaking at 300 rpm, turbidity of antibody formulation. Format: physicochemical. The settings on record: shaking 300 rpm, 72 hours, 37° C. The method, then: as §1
In FIG. 4, the effect of varying the concentration of n-octyl-β-D-glucopyranoside on the turbidity of anti-MUC16 monoclonal antibody formulations during shaking at 300 rpm for 72 hours at 37° C. was investigated.
(§3) In FIGS. 6-9, the effect of 0.23 mM (0.02% w/v) polysorbate 20 or 3.6 mM (0.1% w/v) n-octyl-β-D-glucopyranoside on the turbidity of aqueous formulations of an anti-MUC16 monoclonal antibody (FIG. 6), an anti-IgE monoclonal antibody (FIG. 7), an anti-CD11a monoclonal antibody (FIG. 8), and an anti-CD22 monoclonal antibody (FIG. 9), during shaking at 300 rpm for 72 hours at 37° C. was investigated.

Data set [4] deals with anti-MUC16 monoclonal antibody. The data set can be described thus: Stirring-induced aggregation (500 rpm), turbidity. The settings on record: surfactant at one-tenth of its CMC; stirring 500 rpm, ambient temperature, 90 minutes; FIG. 2. It counts as physicochemical. The method, then:
In this set of studies, a Tefloncoated magnetic stir bar was used to induce agitation in a buffered solution (20 mM histidine-acetate, pH 5.5) of monoclonal antibody. 3 ml of the antibody solution was filled in a 6 cc glass vial and the solution was stirred at 500 rpm using a Teflon-coated stir bar. The solution was stirred for a period of 90 minutes and samples were withdrawn at regular intervals and analyzed for turbidity as an indication of formation of insoluble aggregates. Various surfactants of the class of alkylglycosides were evaluated for their effectiveness to prevent protein aggregation during shaking. The surfactants were used at concentrations below their respective critical micelle concentration (CMC) or above their respective CMC.
FIGS. 2 and 3 show the time-course of turbidity formation in a solution of the anti-MUC16 monoclonal antibody following stirring at 500 rpm using a Teflon-coated magnetic bar at ambient temperature for a period of 90 minutes. Turbidity was evaluated in solutions containing no surfactant as well as in solutions containing different alkylglycoside surfactants or polysorbate 20. […]

Data set [5] has as its system anti-CD22 monoclonal antibody. The data set can be described thus: Shaking at 300 rpm, percent monomer of antibody. Format: physicochemical. The settings on record: 3.6 mM (0.1% w/v); shaking 300 rpm, 72 hours, 37° C.; FIG. 13. Here is the method:
as §1, §2

For data set [6], the system named is anti-CD11a monoclonal antibody. The data set can be described thus: Shaking at 300 rpm, percent monomer of antibody. The settings on record: 3.6 mM (0.1% w/v); shaking 300 rpm, 72 hours, 37° C.; FIG. 12. Format: physicochemical. The method, then:
as §1, §2

The test system of data set [7] is anti-IgE monoclonal antibody. The data set can be described thus: Shaking at 300 rpm, percent monomer of antibody. Format: physicochemical. The following applies: 3.6 mM (0.1% w/v); shaking 300 rpm, 72 hours, 37° C.; FIG. 11. The method, then: as §1, §2
For data set [8] the following is noted: in water at 20-25° C.; cited from earlier work.
Data set [9] relates to anti-CD22 monoclonal antibody. The data set can be described thus: Shaking at 300 rpm, turbidity of antibody formulation. Format: physicochemical. The settings on record: 0.23 mM (0.02% w/v) polysorbate 20 or 3.6 mM (0.1% w/v) n-octyl-β-D-glucopyranoside; shaking 300 rpm, 72 hours, 37° C.; FIG. 9. Here is the method:
as §1, §3

For data set [10], the system named is anti-CD11a monoclonal antibody. The description is as above. It counts as physicochemical. The following applies: 0.23 mM (0.02% w/v) polysorbate 20 or 3.6 mM (0.1% w/v) n-octyl-β-D-glucopyranoside; shaking 300 rpm, 72 hours, 37° C.; FIG. 8. Here is the method: as §1, §3
Data set [11] deals with anti-IgE monoclonal antibody. Described as above. Format: physicochemical. The settings on record: 0.23 mM (0.02% w/v) polysorbate 20 or 3.6 mM (0.1% w/v) n-octyl-β-D-glucopyranoside; shaking 300 rpm, 72 hours, 37° C.; FIG. 7. Here is the method: as §1, §3
Data set [12] relates to anti-CD22 monoclonal antibody. The data set can be described thus: Fenton reagent-induced oxidation of Met and Trp residues (phenyl RP-HPLC). It counts as physicochemical. The following applies: 3.6 mM (0.1% w/v); 0.1 ppm Fe3+ and 1 ppm hydrogen peroxide, 2 or 4 weeks at 40° C., pH 5.5; compared with 0.23 mM polysorbate 20 and no surfactant; FIG. 16. The method, then: In a third experiment, Fenton reagent-induced oxidation of Met and Trp amino acid residues (i.e., amino acids known to be susceptible to oxidation) in an anti-CD22 monoclonal antibody was analyzed. Specifically, buffered (20 mM histidine acetate, pH 5.5) solutions of anti-CD22 monoclonal antibody containing 0.1 ppm Fe^3+ and 1 ppm hydrogen peroxide were prepared and stored for either 2 or 4 weeks at 40° C., either in the absence of surfactant or in the presence of 0.23 mM (0.02% w/v) polysorbate 20 or 3.6 mM (0.1% w/v) n-octyl-β-D-glucopyranoside. samples were then withdrawn and percent oxidation of Met and Trp residues was determined from the percent early peaks of the antibody eluting through a phenyl RP-HPLC column.

In data set [13] the test system is anti-CD11a monoclonal antibody. The data set can be described thus: Oxidation of Met256 on storage in surfactant-containing antibody solution. Format: physicochemical. The following applies: 0.1% w/v surfactant, pH 6.0, stored at 5° C. or 40° C. for 2 or 4 weeks; FIG. 15. The method, then:
In a second experiment, oxidation of the Met256 amino acid residue in an anti-CD11a monoclonal antibody in solutions containing either n-decyl-β-D-glucopyranoside, n-octyl-β-D-glucopyranoside, or polysorbate 20 was evaluated. For this purpose, 3 ml of the buffered antibody solution (pH 6.0) containing 0.1% w/v of the surfactant was stored in 6 cc vials at either 5° C. or 40° C. for a period of either 2 or 4 weeks.

Take `CCCCCCCCO[C@@H]1O[C@H](CO)[C@@H](O)[C@H](O)[C@H]1O` [n-octyl-β-D-glucopyranoside]: the “maintenance of percent monomer upon shaking vs unshaken sample” value in data set [1] (3.6 mM (0.1% w/v), FIG. 10) is on record as “effectively maintained the percent monomer”; in data set [1] (all concentrations tested (0.72-18 mM), FIG. 5), “effectively maintained the percent monomer”; in [5], “effectively maintained the percent monomer”; in data set [6] it was “effectively maintained the percent monomer”; in data set [7], “effectively maintained the percent monomer”. Also, the “prevention of shaking-induced loss of percent monomer” value in data set [2] is listed as “effective in preventing loss of monomer”. The “inhibition of visible antibody aggregates measured by turbidity formation” value in [3] (0.23 mM (0.02% w/v) polysorbate 20 or 3.6 mM (0.1% w/v) n-octyl-β-D-glucopyranoside, FIG. 6) is reported as “effectively inhibited the formation of visible antibody aggregates”; in data set [3] (0.72, 1.8, 3.6, 9 and 18 mM n-octyl-β-D-glucopyranoside, FIG. 4) it was “effectively inhibited the formation of visible antibody aggregates”; in [9] it was “effectively inhibited the formation of visible antibody aggregates”; in data set [10] it was “effectively inhibited the formation of visible antibody aggregates”; in data set [11], “effectively inhibited the formation of visible antibody aggregates”. Moreover, the “prevention of turbidity development on stirring” value in [4] is reported as “effective in preventing turbidity development”. The “CMC Value” in [8] is listed as 18 mM. In addition, the “CMC Value (w/v)” value in data set [8] was 0.53% w/v. Moreover, the “Fenton reagent-induced oxidation of susceptible amino acids (Trp, Met)” value in data set [12] was “inhibited”. Moreover, the “increase in percent oxidized Met256 vs initial sample” value in [13] is “no significant increase”.
